Experimental data: US11884747B2, “Compstatin analogs with increased solubility and improved pharmacokinetic properties” (The Trustees of the University of Pennsylvania, priority 2018, dated 2024)
Values joined by “and” are separate entries in the source; they are usually repeats but may differ in a detail not shown here. Equal values may be shown once. “Also recorded” adds a separate entry of the source.

Tests used:
[1] = for pH of the peptide solution in PBS: at the stated concentration, indicator paper
human C3b = target: T1, human C3b (Homo sapiens, UniProt P01024); assay: SPR binding affinity and kinetic profile with immobilized C3b; conditions: for ka, association constant / kd, dissociation constant / Kd: 25 °C; for ka, association constant / kd, dissociation constant: 1:1 Langmuir model; for Kd: KD=kd/ka, read-out: KD, equilibrium dissociation constant
T1 construct: purchased Complement Technology, Inc., Tyler, TX

[2] = system: classical pathway of complement; assay: Classical pathway complement inhibition ELISA (C3b deposition) in normal human plasma; assay type: biochemical; conditions: human plasma diluted 1:40; mean of at least three experiments
Experimental: For this purpose, microtiter wells (NUNC) were coated with 50 μl of 1% ovalbumin in PBS (pH 7.4) at ambient temperature for 2 h. The wells were blocked with 200 μl of 1% BSA in PBS for 1 h, then coated with 50 μl of 1:1000 α-ovalbumin polyclonal antibody in PBS for 1 h. Between each step, the plate was washed thrice with 200 μl of 0.05% Tween 20 in PBS (PBS-T); 30 μl of VBS (Veronal buffer 1×; 5 mM veronal, pH 7.4, containing 150 mM NaCl, 0.5 mM CaCl2 and 0.5 mM MgCl2) were placed in all but the first well of each row of the 96-well plate, and 5 μM peptide solutions in VBS were prepared. […] Human plasma diluted 1:40 in VBS was incubated for 15 min with peptide of 0.005 to 2.5 μM. After washing with PBS-T, 50 μl/well of 1:1000 goat a-human C3 HRP conjugated antibody in 1% BSA in PBS was added to the wells and incubated for 1 h at room temperature. Complement fixation indicating activation was detected by the addition of HRP substrate (0.05% ABTS and 0.1% of 30% aqueous H2O2 in 0.1 M sodium citrate, pH 4.2) and read at 405 nm. The absorbance data obtained at 405 nm were translated into % inhibition, considering 100% to be equal to complement activation in the absence of peptide. The percent inhibition was plotted against the logarithm of concentrations, and the resulting data set was fitted to the equation “log(inhibitor) vs. normalized response” using GraphPad Prism 5 (La Jolla, CA). IC50 values were obtained from the fitted parameters of the mean of at least three independent experiments. Cp40 was always used as the internal control.

[3] = Pharmacokinetics after single i.v. injection; assay type: in vivo, cynomolgus monkeys
Experimental: FIG. 11 show graphs of peptide concentration over time in cynomolgus monkeys to which was administered a single 2 mg/kg intravenous injection of Cp40-KK (panel a), Cp40-KKK (panel b), mPEG(1 k)-Cp40 (panel c), and mPEG(3 k)-Cp40 (panel d). […]
In vivo pharmacokinetic studies were conducted, in which cynomolgus monkeys were administered single i.v. injections of mPEG(1 k)-Cp40, mPEG(3 k)-Cp40, Cp40-KK, or Cp40-KKK.

[4] = Pharmacokinetics in NHP plasma after single s.c. injection, with plasma C3 levels
[5] = system: complement classical pathway; assay: Classical pathway activation (C3b deposition) ELISA in human plasma with or without rabbit vitreous; assay type: biochemical; conditions: in the absence of vitreous
Experimental: An alternative explanation to the one presented above is that the vitreous contains additional unidentified factors that associate with the Cp40-KKK analog. To investigate whether an unidentified vitreous factor impacts the complement inhibitory activity of lysine containing compounds, complement activation assays were performed using vitreous samples. Briefly, human plasma was incubated with OVA-anti-OVA immune-complexes in the presence of serial dilutions of the Cp40-based analogs mixed with rabbit vitreous. Levels of classical pathway activation (C3b deposition) were determined by ELISA using a polyclonal anti-human C3 antibody conjugated with HRP (MP Biomedicals, Solon, OH) (FIG. 20).

[6] = Residence time in the vitreous after single intravitreal injection (WES and SPR competition assay); assay type: in vivo, cynomolgus monkeys
Experimental: To determine the residence time of mPEG(3 k)-Cp40, mPEG(1 k)-Cp40, Cp40-KK, and Cp40-KKK in the vitreous of cynomolgus macaques, these Cp40-based analogs were administered intravitreally (i.v.t.) to the animals after induction of light ketamine anesthesia (10-15 mg/kg, by intramuscular injection (i.m.)) and dilation of the pupils with tropicamide/phenylephrine ophthalmic solution (see Table 6 for study design).
For i.v.t. injection, the cynomolgus monkeys were anesthetized with a combination of ketamine (15-25 mg/kg, i.m.) and xylazine (2 mg/kg, i.m.) and the eye was cleaned with povidone-iodine solution. After application of oxybuprocaine hydrochloride solution (Benoxil® ophthalmic solution 0.4%) to the cornea as a local anesthetic, the Cp40-based analogs were administered to the animals by i.v.t. injection into either the right (G1, G3) or left (G2, G4) eye of each animal. Immediately following each injection, a single topical dose of 0.5% levofloxacin was administered. After i.v.t. injection of mPEG(3 k)-Cp40, mPEG(1 k)-Cp40, Cp40-KK, and Cp40-KKK, vitreous fluid samples (about 50 μL each) were withdrawn from Cp40-based analog-treated eyes on days 14, 28, 42, (G1, G2, G3, G4), 56, 73, 90 (G1, G2) (this was done either three times or six times). Samples were collected on ice and stored in a deep freezer (˜79.3 to −68.5° C.) until further analysis. […] Presence and concentration of the Cp40-based analogs was determined using either the simple western technology (WES, ProteinSimple, San Jose, CA), or surface plasmon resonance (SPR)-based real-time measurement of binding kinetics on a Cp40-KKK immobilized chip (see detailed methods below). Similar results with regard to the intravitreal residence time and concentration levels of the test compounds were obtained regardless of the quantification method selected.
To quantify the levels of all test compounds in vitreous samples collected at different time points following i.v.t. injection (see FIG. 15), WES analysis was performed on a WES instrument (ProteinSimple, San Jose, CA) using a 2 to 40 kDa Separation Module and Anti-Rabbit Detection Module according to the manufacturers' instructions. […] The resulting electropherograms were evaluated using the Compass software (ProteinSimple, San Jose, CA). The following criteria were used to discriminate low peptide signals from background: The peak signal-to-noise (S/N) ratio given by the software must be ≥10, and the peak height/baseline ratio (calculated manually from the peak height and baseline values given by the software) must be equal to or greater than 3. […] Shown in FIG. 15 is a representative standard curve generated using the WES system and bands obtained upon running pre-determined amounts of purified peptide spiked into rabbit vitreous samples. […]

C3 = conditions: Qu et al. (2013); cited from earlier work

T1 sequence (P01024 23-667 limits assumed): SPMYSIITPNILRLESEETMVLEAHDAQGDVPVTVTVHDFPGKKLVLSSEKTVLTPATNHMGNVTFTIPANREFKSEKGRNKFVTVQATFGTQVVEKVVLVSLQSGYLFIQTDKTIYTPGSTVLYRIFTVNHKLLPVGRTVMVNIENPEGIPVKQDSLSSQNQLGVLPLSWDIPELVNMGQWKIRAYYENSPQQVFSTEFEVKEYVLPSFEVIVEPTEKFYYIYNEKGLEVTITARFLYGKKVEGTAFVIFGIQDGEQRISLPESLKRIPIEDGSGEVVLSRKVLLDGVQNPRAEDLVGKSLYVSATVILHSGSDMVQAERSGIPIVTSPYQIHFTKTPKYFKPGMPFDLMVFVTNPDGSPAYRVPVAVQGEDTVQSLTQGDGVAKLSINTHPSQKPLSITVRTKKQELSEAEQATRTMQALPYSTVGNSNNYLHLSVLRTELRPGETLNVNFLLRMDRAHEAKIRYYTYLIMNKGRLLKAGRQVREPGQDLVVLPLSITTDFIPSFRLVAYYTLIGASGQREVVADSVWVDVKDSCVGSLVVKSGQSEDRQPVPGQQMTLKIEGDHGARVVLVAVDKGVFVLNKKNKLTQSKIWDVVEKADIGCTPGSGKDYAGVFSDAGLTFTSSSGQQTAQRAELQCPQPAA
T1 sequence (P01024 749-1663 partner limits assumed): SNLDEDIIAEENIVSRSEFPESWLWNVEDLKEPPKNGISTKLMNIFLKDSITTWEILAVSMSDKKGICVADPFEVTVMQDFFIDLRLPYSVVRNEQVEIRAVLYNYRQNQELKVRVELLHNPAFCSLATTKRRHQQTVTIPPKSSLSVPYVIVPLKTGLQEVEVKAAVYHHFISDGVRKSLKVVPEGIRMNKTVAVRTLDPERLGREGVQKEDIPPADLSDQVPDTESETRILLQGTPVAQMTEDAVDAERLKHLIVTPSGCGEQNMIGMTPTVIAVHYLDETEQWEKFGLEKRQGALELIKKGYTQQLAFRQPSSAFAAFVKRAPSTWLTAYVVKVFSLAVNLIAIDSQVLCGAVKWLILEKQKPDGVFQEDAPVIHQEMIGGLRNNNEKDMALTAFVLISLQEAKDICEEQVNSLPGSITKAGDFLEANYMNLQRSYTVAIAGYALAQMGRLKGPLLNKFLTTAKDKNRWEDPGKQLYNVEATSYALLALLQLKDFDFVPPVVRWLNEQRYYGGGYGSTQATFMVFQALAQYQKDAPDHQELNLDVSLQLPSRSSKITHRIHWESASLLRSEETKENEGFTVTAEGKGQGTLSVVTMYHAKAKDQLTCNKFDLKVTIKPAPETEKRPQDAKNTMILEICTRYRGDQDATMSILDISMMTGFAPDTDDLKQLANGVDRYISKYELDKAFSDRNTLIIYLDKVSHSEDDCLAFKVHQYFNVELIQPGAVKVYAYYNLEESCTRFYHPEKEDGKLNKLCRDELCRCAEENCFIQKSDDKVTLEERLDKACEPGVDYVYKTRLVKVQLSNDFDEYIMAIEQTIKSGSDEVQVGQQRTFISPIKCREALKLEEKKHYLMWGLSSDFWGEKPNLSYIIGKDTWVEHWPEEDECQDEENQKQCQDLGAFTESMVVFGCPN

Structure (SMILES) | pH of the peptide solution in PBS [1] | ka, association constant (human C3b) | kd, dissociation constant (human C3b) | Kd (human C3b) [nM] | IC50 [2] [nM] | Conc. (mg/ml), solubility in PBS ([1]; pH 7.4) [mg/mL] | drop in the binding affinity toward C3b vs Cp40 (human C3b) [fold] | in vivo Lys cleavage in plasma ([3]; after i.v. injection) | AUC(0-t) ([3]; cynomolgus monkey, plasma, iv, 2 mg/kg, single i.v. injection, read-out: AUC0-120h) [µM·h] | in vivo Lys cleavage in plasma ([4]; after s.c. injection, UPLC-ESI-MS) | C3 saturation time (peptide above plasma level of C3) ([4]; single s.c. 2 mg/kg) [h] | CL/F, apparent clearance ([4]; single s.c. 2 mg/kg, SUM for Lys analogs, 2 mg/kg) | complement classical pathway inhibitory activity [5] | detection in vitreous over time ([6]; single i.v.t. 500 μg, days 14-90) | binding affinity for C3 (C3) | binding affinity for C3 higher than that of the parent peptide (C3) | C3 saturation time (peptide above plasma level of C3) ([4]; single s.c. 2 mg/kg, 2 mg/kg) | detection in vitreous ([6]; 100 μg i.v.t.)
CC[C@H](C)[C@H](NC(=O)[C@@H](Cc1ccc(O)cc1)NC(=O)CCOCCOCCOCCOCCOCCOCCOCCOCCOCCOCCOCCOCCOCCOCCOCCOCCOCCOCCOCCOCCOCCOCCOCCOC)C(=O)N[C@H]1CSSC[C@@H](C(=O)N(C)[C@H](C(N)=O)[C@@H](C)CC)NC(=O)[C@H](CCCNC(=N)N)NC(=O)[C@H](Cc2c[nH]cn2)NC(=O)[C@H](C)NC(=O)CN(C)C(=O)[C@H](Cc2c[nH]c3ccccc23)NC(=O)[C@H](CC(=O)O)NC(=O)[C@H](CCC(N)=O)NC(=O)[C@H](Cc2cn(C)c3ccccc23)NC(=O)[C@H](C(C)C)NC1=O [mPEG(1056)-Cp40] | 7-7.5 | 0.72 ± 0.25 10^6M^−1s^−1 | 2.80 ± 0.95 10^−3s^−1 | 3.93 ± 0.39 | 52 ± 2.7 | – | – | – | – | – | – | – | – | – | – | – | – | –
CC[C@H](C)[C@H](NC(=O)[C@@H](Cc1ccc(O)cc1)NC(=O)CCOCCOCCOCCOCCOCCOCCOCCOCCOCCOCCOCCOC)C(=O)N[C@H]1CSSC[C@@H](C(=O)N(C)[C@H](C(N)=O)[C@@H](C)CC)NC(=O)[C@H](CCCNC(=N)N)NC(=O)[C@H](Cc2c[nH]cn2)NC(=O)[C@H](C)NC(=O)CN(C)C(=O)[C@H](Cc2c[nH]c3ccccc23)NC(=O)[C@H](CC(=O)O)NC(=O)[C@H](CCC(N)=O)NC(=O)[C@H](Cc2cn(C)c3ccccc23)NC(=O)[C@H](C(C)C)NC1=O [mPEG(528)-Cp40] | 7-7.5 | 1.00 ± 0.27 10^6M^−1s^−1 | 2.45 ± 0.28 10^−3s^−1 | 2.58 ± 0.51 | 83.5 ± 8.1 | 2.3 | 5 | – | – | – | – | – | – | – | – | – | – | –
CC[C@H](C)[C@H](NC(=O)[C@H](N)Cc1ccc(O)cc1)C(=O)N[C@H]1CSSC[C@@H](C(=O)N(C)[C@H](C(=O)N[C@@H](CCCCN)C(=O)N[C@@H](CCCCN)C(N)=O)[C@@H](C)CC)NC(=O)[C@H](CCCNC(=N)N)NC(=O)[C@H](Cc2c[nH]cn2)NC(=O)[C@H](C)NC(=O)CN(C)C(=O)[C@H](Cc2c[nH]c3ccccc23)NC(=O)[C@H](CC(=O)O)NC(=O)[C@H](CCC(N)=O)NC(=O)[C@H](Cc2cn(C)c3ccccc23)NC(=O)[C@H](C(C)C)NC1=O [Cp40-KK, DTyr-Ile-[Cys-Val-Trp(Me)-Gln-Asp-Trp-Sar-Ala-His-Arg-Cys]-mIle-Lys-Lys—NH2] | 7-7.5 | – | 1.52 ± 0.25 10^−3s^−1 | 0.44 ± 0.17 | 61.8 ± 4.2 | – | – | metabolized to minimal amounts of Cp40-K | 85.2 | Cp40-K was also detected in the NHP plasma samples, beginning at 30 min after sc injection; also recorded: cleaved in vivo generating minimal amounts of Cp40-K | 2.5 to 5 | 3348 ((mg/kg)/(μM · h) and 2648 ((mg/kg)/(μM · h) | inhibitory activity in a dose-dependent manner | no longer detected on day 90 | – | – | – | –
CC[C@H](C)[C@H](NC(=O)[C@H](N)Cc1ccc(O)cc1)C(=O)N[C@H]1CSSC[C@@H](C(=O)N(C)[C@H](C(=O)N[C@@H](CCCCN)C(N)=O)[C@@H](C)CC)NC(=O)[C@H](CCCNC(=N)N)NC(=O)[C@H](Cc2c[nH]cn2)NC(=O)[C@H](C)NC(=O)CN(C)C(=O)[C@H](Cc2c[nH]c3ccccc23)NC(=O)[C@H](CC(=O)O)NC(=O)[C@H](CCC(N)=O)NC(=O)[C@H](Cc2cn(C)c3ccccc23)NC(=O)[C@H](C(C)C)NC1=O [Cp40-K, DTyr-Ile-[Cys-Val-Trp(Me)-Gln-Asp-Trp-Sar-Ala-His-Arg-Cys]-mlle-Lys—NH2] | 7.5 | – | 1.85 ± 0.50 10^−3s^−1 | 0.92 ± 0.2 | 95.6 ± 9.2 | – | – | – | – | – | – | – | inhibitory activity in a dose-dependent manner | – | – | – | – | –
CC[C@H](C)[C@H](NC(=O)[C@H](N)Cc1ccc(O)cc1)C(=O)N[C@H]1CSSC[C@@H](C(=O)N(C)[C@H](C(N)=O)[C@@H](C)CC)NC(=O)[C@H](CCCNC(=N)N)NC(=O)[C@H](Cc2c[nH]cn2)NC(=O)[C@H](C)NC(=O)CN(C)C(=O)[C@H](Cc2c[nH]c3ccccc23)NC(=O)[C@H](CC(=O)O)NC(=O)[C@H](CCC(N)=O)NC(=O)[C@H](Cc2cn(C)c3ccccc23)NC(=O)[C@H](C(C)C)NC1=O [Cp40, DTyr-Ile-[Cys-Val-Trp(Me)-Gln-Asp-Trp-Sar-Ala-His-Arg-Cys]-mIle-NH2, reference compound] | 7.5 | – | 1.84 ± 0.40 10^−3s^−1 | 0.53 ± 0.14 | 56.8 ± 3 | – | – | – | – | – | – | – | inhibitory activity in a dose-dependent manner | – | subnanomolar | ~6,000 fold | 4 to 5 h and ~4.5 h | no detection of any compound was observed after one month
